Data: patent US20060252823A1, “Isocoumarin-based inhibitors of urokinase-type plasminogen activator” (priority 2005, published 2006)
Structures can show the parent of a compound that is named as a salt.

Key:
[1] = target: T1, Human urokinase (Homo sapiens, UniProt P00749); experiment: Kinetics of human urokinase inhibition with Spectrozyme UK substrate; assay type: biochemical; details: for binding to uPA compared to unsubstituted counterparts: qualitative comparison of dissociation constants (Table 1); for fold improvement of Ki over 4d: compared to unsubstituted compound 4d; for Ki: human uPA, 0.1M Tris pH 8.8, 25° C., initial rate data
T1 construct: purchased Sigma/Aldrich
Description: Human urokinase (Sigma/Aldrich, St. Louis, Mo.) and Spectrozyme UK (American Diagnostica, Stamford, Conn.) were used for the kinetic studies. Enzyme activity was routinely measured in 1 ml volumes of 0.1M Tris, pH 8.8, Spectrozyme UK (10 μM to 150 μM) and 0.64 μg (3,770 units/mg protein) human urokinase. Reactions were monitored at 405 nm, 25° C., with a Perkin/Elmer Lambda S2 UV/vis spectrophotometer. Michaelis constants and Ki values were determined from initial rate data, measured at 8 to 10 substrate concentrations, by non-linear regression analysis with SigmaPlot's Enzyme Kinetics Module™ (Chicago, Ill., USA).

O=c1oc(OCCBr)c(Cl)c2ccc([N+](=O)[O-])cc12 [Compound 4a, 3-(2-Bromoethoxy)-4-chloro-7-nitroisocoumarin]
melting point: 126 to 128 °C | binding to uPA compared to unsubstituted counterparts [1]: improved binding

O=c1oc(OCCCBr)c(Cl)c2ccc([N+](=O)[O-])cc12 [Compound 4b, 3-(3-Bromopropoxy)-4-chloro-7-nitroisocoumarin]
melting point: 131 to 134 °C | fold improvement of Ki over 4d [1]: 8 fold | Ki [1]: 1200 nM | binding to uPA compared to unsubstituted counterparts [1]: improved binding

O=c1oc(OCCBr)c(Cl)c2ccccc12 [Compound 4c, 3-(2-Bromoethoxy)-4-chloroisocoumarin]
melting point: 81 to 82 °C

O=c1oc(OCCCBr)c(Cl)c2ccccc12 [Compound 4d, 3-(3-Bromopropoxy)-4-chloroisocoumarin]
melting point: 95 to 97 °C | type of inhibition of uPA [1]: simple competitive inhibition with no evidence of rapid inactivation | Ki [1]: 9000 nM

O=c1oc(OCCCCBr)c(Cl)c2ccccc12 [Compound 4e, 3-(4-Bromobutoxy)4-chloroisocoumarin]
melting point: 75 to 77 °C

Br.N=C(S)NCCOc1oc(=O)c2ccccc2c1Cl [Compound 5c, 4-Chloro-3-(2-isothioureidoethoxy)isocoumarin hydrobromide]
melting point: 168 to 170 °C

N=C(N)SCCOc1oc(=O)c2ccccc2c1Cl [Compound 5c, 4-Chloro-3-(2-isothioureidoethoxy)isocoumarin hydrobromide]
Ki [1]: 27 nM

Br.NC(S)=NCCCOc1oc(=O)c2ccccc2c1Cl [Compound 5d, 4-Chloro-3-(3-isothioureidopropoxy)isocoumarin hydrobromide]
melting point: 159 to 163 °C

Br.N=C(S)NCCCCOc1oc(=O)c2ccccc2c1Cl [Compound 5e, 4-Chloro-3-(4-isothioureidobutoxy)isocoumarin hydrobromide]
melting point: 159 to 161 °C

Nc1ccc2c(Cl)c(OCCBr)oc(=O)c2c1 [Compound 6a, 7-Amino-3-(2-bromoethoxy)4-chloroisocoumarin]
melting point: 134 to 136 °C

Nc1ccc2c(Cl)c(OCCCBr)oc(=O)c2c1 [Compound 6b, 7-Amino-3-(3-bromopropoxy)-4-chloroisocoumarin]
melting point: 106 to 107 °C

Br.NC(S)=NCCCOc1cc2ccc(N)cc2c(=O)o1 [Compound 7b, 7-Amino-3-(3-isothioureidopropoxy)isocoumarin hydrobromide]
melting point: 173 °C

O=C(Nc1ccc2c(Cl)c(OCCBr)oc(=O)c2c1)c1ccccc1 [Compound 8a, 7-Benzamido-3-(2-bromoethoxy)-4-chloroisocoumarin]
melting point: 214 to 216 °C | binding to uPA compared to unsubstituted counterparts [1]: markedly improved binding

O=C(Nc1ccc2c(Cl)c(OCCCBr)oc(=O)c2c1)c1ccccc1 [Compound 8b, 7-Benzamido-3-(3-bromopropoxy)-4-chloroisocoumarin]
melting point: 193 to 194 °C | fold improvement of Ki over 4d [1]: 300 fold | Ki [1]: 34 nM | dissociation constant ([1]; in words): low nanomolar range | binding to uPA compared to unsubstituted counterparts [1]: markedly improved binding

Br.N=C(S)NCCOc1oc(=O)c2cc(NC(=O)c3ccccc3)ccc2c1Cl [Compound 9a, 7-Benzamido-4-chloro-3-(2-isothioureidoethoxy)isocoumarin hydrobromide]
melting point: 173 to 175 °C

Br.NC(S)=NCCCOc1oc(=O)c2cc(NC(=O)c3ccccc3)ccc2c1Cl [Compound 9b, 7-Benzamido-4-chloro-3-(3-isothioureidopropoxy)isocoumarin hydrobromide]
melting point: 203 to 204 °C | binding to uPA compared to unsubstituted counterparts [1]: did not exhibit any significant improvement in binding

O=c1oc(OCCBr)cc2ccc([N+](=O)[O-])cc12 [Compound 10a, 3-(2-Bromoethoxy)-7-nitroisocoumarin]
melting point: 95 to 97 °C

O=c1oc(OCCCBr)cc2ccc([N+](=O)[O-])cc12 [Compound 10b, 3-(3-Bromopropoxy)-7-nitroisocoumarin]
melting point: 112 to 113 °C

O=C(c1c(OCCCBr)oc(=O)c2ccccc12)C(F)(F)F [Compound 10c, 3-(3-Bromopropoxy)-4-trifluoroacetylisocoumarin]
binding to uPA compared to unsubstituted counterparts [1]: did not show improved binding

Nc1ccc2cc(OCCBr)oc(=O)c2c1 [Compound 11, 7-Amino-3-(2-bromoethoxy)isocoumarin]
melting point: > 280 °C
